Measured values as given in patent US9567339B2, “Primary carboxamides as BTK inhibitors” (AbbVie Inc., priority 2013, dated 2017).
Read-outs that look alike come from different tables or passages of the source.

Target: BTK, recombinant human catalytic domain (aa 393-659) (Homo sapiens (Human), UniProt Q06187)
Test: In vitro BTK kinase activity measured by time-resolved fluorescence resonance energy transfer (trFRET)
Type: biochemical
Settings: read-out: Btk IC50
[1] = trFRET, 0.001 mM ATP, biotin-TYR1 peptide substrate

Sequence of BTK, recombinant human catalytic domain (aa 393-659) (Q06187 393-659): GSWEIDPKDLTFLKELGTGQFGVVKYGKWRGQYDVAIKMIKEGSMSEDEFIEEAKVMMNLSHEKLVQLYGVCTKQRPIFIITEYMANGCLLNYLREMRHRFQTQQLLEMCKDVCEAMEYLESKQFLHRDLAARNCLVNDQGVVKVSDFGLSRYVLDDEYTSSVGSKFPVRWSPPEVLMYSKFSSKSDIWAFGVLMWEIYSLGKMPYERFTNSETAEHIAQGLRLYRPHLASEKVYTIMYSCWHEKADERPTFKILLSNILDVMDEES

## Cc1c(N)cccc1-c1ccc(C(N)=O)c2[nH]c(C3=CCN(S(C)(=O)=O)CC3)cc12 [A.4.5, 4-(3-amino-2-methylphenyl)-2-(1-(methylsulfonyl)-1,2,3,6-tetrahydropyridin-4-yl)-1H-indole-7-carboxamide]
[1]
  IC50: < 0.1 µM

## CCC(=O)N1CC[C@@H](c2ccc(C(N)=O)c3[nH]c(C)cc23)C1 [E.10.2]
  IC50: 0.1 to 1 µM

## C=CC(=O)Nc1cccc(-c2ccc(C(N)=O)c3[nH]c(CCO)cc23)c1 [Example 23, 4-(3-Acrylamidophenyl)-2-(2-hydroxyethyl)-1H-indole-7-carboxamide]
[1]
  IC50: < 0.1 µM

## C=CC(=O)Nc1cccc(-c2ccc(C(N)=O)c3[nH]c(CCOCC)cc23)c1 [Example 22, 4-(3-Acrylamidophenyl)-2-(2-ethoxyethyl)-1H-indole-7-carboxamide]
[1]
  IC50: < 0.1 µM

## Cc1c(-c2ccc(C(N)=O)c3[nH]c(C4=CCN(S(C)(=O)=O)CC4)cc23)cccc1N1CCc2ccccc2C1=O [A.4.6]
[1]
  IC50: < 0.1 µM

## C=CC(=O)Nc1cc(OCc2ccccc2)ccc1-c1ccc(C(N)=O)c2[nH]ccc12 [E.1.17]
  IC50: 1 to 10 µM

## C=CC(=O)N1CC(N(C)c2ccc(C(N)=O)c3[nH]c(-c4ccc5c(c4)COCC5)cc23)C1 [E.9.3]
  IC50: < 0.1 µM

## C=CC(=O)Nc1cccc(-c2ccc(C(N)=O)c3[nH]c(-c4ccnn4C4CCCCO4)cc23)c1C (centres unmarked) [A.1.2]
[1]
  IC50: < 0.1 µM

## C=CC(=O)N1CC(N(C)c2ccc(C(N)=O)c3[nH]c(C4=CCC(S(C)(=O)=O)CC4)cc23)C1 (centres unmarked) [E.9.6]
  IC50: < 0.1 µM

## C=CC(=O)Nc1cccc(-c2ccc(C(N)=O)c3[nH]c(-c4cncnc4)cc23)c1C [A.1.10]
[1]
  IC50: < 0.1 µM

## Cc1c(NC(=O)CCN2CCOCC2)cccc1-c1ccc(C(N)=O)c2[nH]ccc12 [D.8.13]
[1]
  IC50: 1 to 10 µM

## CCNC(=O)/C=C/C(=O)Nc1cccc(-c2ccc(C(N)=O)c3[nH]ccc23)c1 [D.4.3]
[1]
  IC50: 1 to 10 µM

## C=CC(=O)Nc1cccc(-c2ncc(C(N)=O)c3[nH]ccc23)c1 [E.1.10]
  IC50: < 0.1 µM

## C=CC(=O)N1CCC[C@@H](c2cnc(C(N)=O)c3[nH]ccc23)C1 [E.9.51]
  IC50: 0.1 to 1 µM

## Cc1c(NC(=O)/C=C/c2cnn(C)c2)cccc1-c1ccc(C(N)=O)c2[nH]ccc12 [D.8.2]
[1]
  IC50: 0.1 to 1 µM

## C=CC(=O)N(CC(C)C)c1cccc(-c2ccc(C(N)=O)c3[nH]ccc23)c1 [E.1.35, 4-(3-(N-isobutylacrylamido)phenyl)-1H-indole-7-carboxamide]
  IC50: 0.1 to 1 µM

## C=CC(=O)N1CC[C@H](c2ccc(C(N)=O)c3[nH]c(-c4cc5n(n4)CCOC5)cc23)C1 [E.9.26]
  IC50: < 0.1 µM

## NC(=O)c1ccc(-c2cccc(NC(=O)/C=C/C(=O)NC3CC3)c2)c2cc[nH]c12 [D.4.4]
[1]
  IC50: 1 to 10 µM

## C=C(CN)C(=O)Nc1cccc(-c2ccc(C(N)=O)c3[nH]ccc23)c1 [G.1.2]
  IC50: < 0.1 µM

## Cc1c(-c2ccc(C(N)=O)c3[nH]c(-c4cccnc4)cc23)cccc1N1Cc2ccccc2C1=O [A.7.4]
[1]
  IC50: < 0.1 µM

## C=CC(=O)N1CC(Oc2ccc(C(N)=O)c3[nH]ccc23)C1 [Example 27, 4-((1-Acryloylazetidin-3-yl)oxy)-1H-indole-7-carboxamide]
[1]
  IC50: < 0.1 µM

## C=CC(=O)N1CC(N(C)c2ccc(C(N)=O)c3[nH]c(C4CCOC4)cc23)C1 (centres unmarked) [E.9.21]
  IC50: < 0.1 µM

## Cc1c(NC(=O)c2nccs2)cccc1-c1ccc(C(N)=O)c2[nH]c(-c3ccccc3CNC(=O)CCl)cc12 [E.4.1]
  IC50: 0.1 to 1 µM

## CC(=O)N1CC=C(c2cc3c(-c4cccc(NC(=O)c5ccc(C(C)(C)C#N)cc5)c4C)ccc(C(N)=O)c3[nH]2)CC1 [A.3.8]
[1]
  IC50: < 0.1 µM

## Cc1c(NC(=O)c2nccs2)cccc1-c1ccc(C(N)=O)c2[nH]c(-c3ccc(=O)n(C)c3)cc12 [A.2.1]
[1]
  IC50: < 0.1 µM

## C=CC(=O)Nc1cccc(-c2ccc(C(N)=O)c3[nH]c(-c4ccc(N5CCOCC5)nc4)cc23)c1C [A.1.30]
[1]
  IC50: < 0.1 µM

## Cc1c(NC(=O)COc2cccnn2)cccc1-c1ccc(C(N)=O)c2[nH]c(C3=CCN(S(C)(=O)=O)CC3)cc12 [D.7.28]
  IC50: < 0.1 µM

## C=CC(=O)Nc1cc(-c2ccc(C(N)=O)c3[nH]ccc23)c(F)cc1F [E.1.22]
  IC50: < 0.1 µM

## C=CC(=O)Nc1cc(-c2ccc(C(N)=O)c3[nH]ccc23)ccn1 [E.1.3]
  IC50: < 0.1 µM

## NC(=O)c1ccc(-c2cccc(NC(=O)/C=C/C(=O)O)c2)c2cc[nH]c12 [C.1, (E)-4-((3-(7-Carbamoyl-1H-indol-4-yl)phenyl)amino)-4-oxobut-2-enoic acid]
[1]
  IC50: 1 to 10 µM

## C=CC(=O)Nc1cccc(-c2ccc(C(N)=O)c3[nH]c(CC)cc23)c1 [Example 20, 4-(3-Acrylamidophenyl)-2-ethyl-1H-indole-7-carboxamide]
[1]
  IC50: < 0.1 µM

## C=CC(=O)Nc1cccc(-c2ccc(C(N)=O)c3[nH]c(C)cc23)c1 [Example 19, 4-(3-Acrylamidophenyl)-2-methyl-1H-indole-7-carboxamide]
[1]
  IC50: < 0.1 µM

## C=CC(=O)Nc1cc(-c2ccc(C(N)=O)c3[nH]ccc23)ccc1C [E.1.25]
  IC50: < 0.1 µM

## C=CC(=O)Nc1cccc(-c2ccc(C(N)=O)c3[nH]c(-c4cccc(OC)c4)cc23)c1C [A.1.22]
[1]
  IC50: < 0.1 µM

## C=CC(=O)NCc1ccccc1-c1cc2c(-c3cccc(NC(=O)c4nccs4)c3C)ccc(C(N)=O)c2[nH]1 [D.1.2]
[1]
  IC50: 1 to 10 µM

## C=CC(=O)Nc1cccc(-c2ccc(C(N)=O)c3[nH]c(-c4ccc(CN5CCOCC5)cc4)cc23)c1C [A.1.44]
[1]
  IC50: < 0.1 µM

## C=CC(=O)N1CC(N(C)c2ccc(C(N)=O)c3[nH]c(-c4cnc5c(c4)COCC5)cc23)C1 [E.9.11]
  IC50: < 0.1 µM

## Cc1c(NC(=O)c2ccc(C3CC3)cc2)cccc1-c1ccc(C(N)=O)c2[nH]c(C3=CCN(S(C)(=O)=O)CC3)cc12 [A.4.16]
[1]
  IC50: < 0.1 µM

## CCOC(=O)/C=C/C(=O)Nc1cccc(-c2ccc(C(N)=O)c3[nH]c(C4=CCN(S(C)(=O)=O)CC4)cc23)c1C [D.7.20]
  IC50: < 0.1 µM

## C=CC(=O)Nc1cc(C)cc(-c2ccc(C(N)=O)c3[nH]ccc23)c1 [E.1.29]
  IC50: 0.1 to 1 µM

## C=CC(=O)N1CC(N(C)c2ccc(C(N)=O)c3[nH]c(-c4ccc5c(c4)NCCO5)cc23)C1 [E.9.15]
  IC50: < 0.1 µM

## Cc1c(NC(=O)c2nccs2)cccc1-c1ccc(C(N)=O)c2[nH]c(-c3ccccc3CNC(=O)COc3ccccc3)cc12 [D.1.6]
[1]
  IC50: 1 to 10 µM

## Cc1c(NC(=O)c2nccs2)cccc1-c1ccc(C(N)=O)c2[nH]c(C3=CCN(S(C)(=O)=O)CC3)cc12 [A.4.17]
[1]
  IC50: < 0.1 µM

## CC(=O)N1CC=C(c2cc3c(-c4cccc(-n5cnc6ccccc6c5=O)c4C)ccc(C(N)=O)c3[nH]2)C1 [E.8.1]
  IC50: < 0.1 µM

## C=CC(=O)Nc1cccc(-c2ccc(C(N)=O)c3[nH]c(-c4cnn(C(C)C)c4)cc23)c1C [A.1.4]
[1]
  IC50: < 0.1 µM

## CC(=O)N1CCC(c2cc3c(-c4cccc(N)c4C)ccc(C(N)=O)c3[nH]2)CC1 [L.1, 2-(1-Acetylpiperidin-4-yl)-4-(3-amino-2-methylphenyl)-1H-indole-7-carboxamide]
[1]
  IC50: 0.1 to 1 µM

## C=CC(=O)N1CCC[C@@H](c2ccc(C(N)=O)c3[nH]c(C)cc23)C1 [E.9.7]
  IC50: < 0.1 µM

## C=CC(=O)N1CC(N(C)c2ccc(C(N)=O)c3[nH]c(-c4ccc(CN5CCOCC5)cn4)cc23)C1 [E.9.13]
  IC50: < 0.1 µM

## Cc1c(N)cccc1-c1ccc(C(N)=O)c2[nH]ccc12 [Example 16, 4-(3-Amino-2-methylphenyl)-1H-indole-7-carboxamide]
[1]
  IC50: 1 to 10 µM

## C=CC(=O)Nc1cccc(-c2ccc(C(N)=O)c3[nH]c(-c4cccc(NC(C)=O)c4)cc23)c1C [A.1.15]
[1]
  IC50: < 0.1 µM
